Data published in ChEMBL document CHEMBL1138403, “Nitrogen-containing flavonoids as CDK1/Cyclin B inhibitors: design, synthesis, and biological evaluation” (Bioorg Med Chem Lett, 2007).

Key:
HL-60 = experiment: Antiproliferative activity against human HL60 cells after 72 hrs; format: functional, cell-based; conditions: HL-60, 72 h
[1] = Antiproliferative activity against human ECA109 cells after 72 hrs; format: functional, cell-based; conditions: ECa-109, 72 h
A549 = experiment: Antiproliferative activity against human A549 cells after 72 hrs; format: functional, cell-based; conditions: A549, 72 h
MCF7 = experiment: Antiproliferative activity against human MCF7 cells after 72 hrs; format: functional, cell-based; conditions: MCF7, 72 h
[2] = Inhibition of CDK1/Cyclin B; design: species or system Homo sapiens
PC-3 [3] = experiment: Antiproliferative activity against human PC3 cells after 72 hrs; format: functional, cell-based; conditions: PC-3, 72 h
Bel-7402 = experiment: Antiproliferative activity against human Bel7402 cells after 72 hrs; format: functional, cell-based; conditions: Bel-7402, 72 h
PC-3 [4] = experiment: Cell cycle arrest in human PC3 cells assessed as accumulation at SubG0 phase at 7.2 uM after 12 hrs relative to control by flow cytometry; format: functional
PC-3 [5] = experiment: Cell cycle arrest in human PC3 cells assessed as accumulation at G0/G1 phase at 7.2 uM after 12 hrs relative to control by flow cytometry; format: functional
PC-3 [6] = experiment: Cell cycle arrest in human PC3 cells assessed as accumulation at S phase at 7.2 uM after 12 hrs relative to control by flow cytometry; format: functional
PC-3 [7] = experiment: Cell cycle arrest in human PC3 cells assessed as accumulation at G2/M phase at 7.2 uM after 24 hrs relative to control by flow cytometry; format: functional
PC-3 [8] = experiment: Effect on morphology of human PC3 cells assessed as increase in chromatin condensation by staining method; format: functional, cell-based
PC-3 [9] = experiment: Cell cycle arrest in human PC3 cells assessed as accumulation at G2/M phase at 7.2 uM after 12 hrs relative to control by flow cytometry; format: functional
PC-3 [10] = experiment: Cell cycle arrest in human PC3 cells assessed as accumulation at S phase at 7.2 uM after 24 hrs relative to control by flow cytometry; format: functional
PC-3 [11] = experiment: Cell cycle arrest in human PC3 cells assessed as accumulation at G0/G1 phase at 7.2 uM after 24 hrs relative to control by flow cytometry; format: functional
PC-3 [12] = experiment: Cell cycle arrest in human PC3 cells assessed as accumulation at SubG0 phase at 7.2 uM after 24 hrs relative to control by flow cytometry; format: functional

Row | SMILES | IC50 (HL-60) [µM] | IC50 [1] [µM] | IC50 (A549) [µM] | IC50 (MCF7) [µM] | IC50 [2] [µM] | IC50 (PC-3 [3]) [µM] | IC50 (Bel-7402) [µM] | Activity (PC-3 [4]) [%] | Activity (PC-3 [5]) [%] | Activity (PC-3 [6]) [%] | Activity (PC-3 [7]) [%] | Activity (PC-3 [8]) | Activity (PC-3 [9]) [%] | Activity (PC-3 [10]) [%] | Activity (PC-3 [11]) [%] | Activity (PC-3 [12]) [%]
1 | COc1cc(OC)c(C(=O)/C=C/c2ccccc2Cl)c(O)c1CN1CCOCC1 | 6.9 | 6.2 | 4.8 | 17.2 | 0.0475 | 17.2 | 22.7 |  |  |  |  |  |  |  |  | 
2 | COc1cc(O)c2c(=O)cc(-c3ccccc3Cl)oc2c1CN1CCCCC1 | 48.1 | 21.5 | 45.5 |  | 0.138 | 63.4 | 118 |  |  |  |  |  |  |  |  | 
3 | CCN(CC)Cc1c(OC)cc(OC)c(C(=O)/C=C/c2ccccc2Cl)c1O | 30.9 | 7.1 | 3.6 | 2.7 | 0.0497 | 4.2 | 6.7 |  |  |  |  |  |  |  |  | 
4 | COc1cc(OC)c(C(=O)/C=C/c2ccccc2Cl)c(O)c1CN1CCCCC1 | 3.6 | 2.5 | 2.8 | 2.6 | 0.0569 | 1.7 | 3.1 | 6.1 | 60.2 | 25.8 | 9.8 | Dose-dependent effect | 14 | 29.9 | 60.7 | 34.1
5 | COC(=O)CN(C)Cc1c(OC)cc(OC)c(C(=O)/C=C/c2ccccc2Cl)c1O | 0.4 | 13.9 | 9.1 | 10.6 | > 3 | 7.2 | 8.5 |  |  |  |  |  |  |  |  | 
6 | COc1cc(OC)c(C(=O)/C=C/c2ccccc2Cl)c(O)c1CN1CCN(C)CC1 | 10.9 | 7.1 | 4.1 | 5.2 | > 3 | 4.7 | 7.6 |  |  |  |  |  |  |  |  | 
7 | COc1cc(OC)c2c(=O)cc(-c3ccccc3Cl)oc2c1CN1CCOCC1 | 67.3 | 61.3 | > 150 |  | > 3 | 57.8 | 61.3 |  |  |  |  |  |  |  |  | 
8 | COc1cc(OC)c(C(=O)/C=C/c2ccccc2Cl)c(O)c1CN(C)CCOC(C)=O | 10.8 | 3.9 | 3.3 | 5.1 | 0.324 | 10 | 8.1 |  |  |  |  |  |  |  |  | 
9 | CCN(C)Cc1c(OC)cc(OC)c(C(=O)/C=C/c2ccccc2Cl)c1O | 0.2 | 1.4 | 1.3 | 6.8 | 0.0758 | 0.003 | 23.3 |  |  |  |  |  |  |  |  | 
10 | COc1cc(OC)c(C(=O)/C=C/c2ccccc2Cl)c(O)c1CN(C)CCO | 19.7 | 0.8 | 6.9 | 10 | > 3 | 6.2 | 64.4 |  |  |  |  |  |  |  |  | 
11 | COc1cc(OC)c(C(=O)/C=C/c2ccccc2Cl)c(O)c1CN(C)CC(=O)O | 80.3 | 44.4 | 79.4 | 73.2 |  | 12.5 | 35.2 |  |  |  |  |  |  |  |  | 
12 | COc1cc(OC)c(C(=O)/C=C/c2ccccc2Cl)c(O)c1CN1CCCC1 | 14.2 | 6.9 | 2.6 | 3.9 | 1.25 | 3.1 | 6.8 |  |  |  |  |  |  |  |  | 
13 | COc1cc(O)c2c(=O)cc(-c3ccccc3Cl)oc2c1CN1CCOCC1 | 26.9 | 86.6 | > 150 | 124 | > 3 | 42 | > 150 |  |  |  |  |  |  |  |  | 
14 | COc1cc(OC)c2c(=O)cc(-c3ccccc3Cl)oc2c1CN1CCCCC1 | 34.5 | 23.7 | > 150 | 23.7 | 0.155 | 15.5 | 44.2 |  |  |  |  |  |  |  |  | 
15 | COc1cc(OC)c(C(=O)/C=C/c2ccccc2Cl)c(O)c1CN(C)C | 19.2 | 2.6 | 2.1 | 0.09 | 0.503 | 0.4 | 21.8 |  |  |  |  |  |  |  |  | 
16 | COc1cc(OC)c(C(=O)/C=C/c2ccccc2Cl)c(O)c1CN(C)CCCN(C)C | 11.4 | 3.8 | 3.1 | 3.2 | 0.468 | 14.5 | 30.9 |  |  |  |  |  |  |  |  | 
